From patent US20170360664A1, “PERSONAL CARE COMPOSITIONS” (Colgate-Palmolive Company, priority 2015, published 2017)

Assay: Clarity, pH and aging stability of aqueous SnF2/STPP solutions
Format: physicochemical
Settings: 2% stannous fluoride solution without STPP
Experimental: The solutions are then further mixed at room temperature until a clear solution forms. All of the solutions contain 2% SnF2.
The solutions with a P:Sn molar ratio spanning from 1 to 15 containing 2% SnF2 are aged overnight at room temperature.
A different set of solutions with a P:Sn molar ratio of 2 and 5 are placed in a 50° C. oven for eight weeks.

Q: With `[F][Sn][F]` [stannous fluoride] as the compound, how does the Appearance after dissolution read?
A: precipitate almost immediately after dissolution
